According to patent US20100056508A1, “AMINE DERIVATIVES AND THEIR USE IN BETA-2-ADRENORECEPTOR MEDIATED DISEASES” (ASTRAZENECA AB, priority 2006, published 2010):

What was measured:
[1] = biological target: T1, recombinant human Dopamine Subtype D2s receptors (Homo sapiens, UniProt P14416); assay: Dopamine D2 selectivity assay, [3H]-spiperone binding to membranes; conditions: inhibition of [3H]-spiperone binding, read-out: D2 bind pIC50 (converted)
T1 construct: purchased Perkin Elmer
Procedure, shortened: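 Human D2s receptor membranes incubated 2 h at room temperature with 0.16 nM [3H]-spiperone and test compound in HEPES buffer pH 7.4 (120 mM NaCl, 0.1% gelatin). Non-specific binding defined with 10 μM haloperidol; filter-bound radioactivity counted, pIC50 from four-parameter logistic fit.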

[2] = biological target: T2, recombinant human α1D receptor (Homo sapiens, UniProt P25100); assay: Adrenergic α1D selectivity assay, [3H]-prazosin binding to membranes; conditions: inhibition of [3H]-prazosin binding, HEK cell membranes, read-out: α1 bind pIC50 (converted)
T2 construct: expressed in transfected cells; host or cells: human embryonic kidney 293 cells (HEK93 [sic]), membranes
T2 sequence (P25100 1-572): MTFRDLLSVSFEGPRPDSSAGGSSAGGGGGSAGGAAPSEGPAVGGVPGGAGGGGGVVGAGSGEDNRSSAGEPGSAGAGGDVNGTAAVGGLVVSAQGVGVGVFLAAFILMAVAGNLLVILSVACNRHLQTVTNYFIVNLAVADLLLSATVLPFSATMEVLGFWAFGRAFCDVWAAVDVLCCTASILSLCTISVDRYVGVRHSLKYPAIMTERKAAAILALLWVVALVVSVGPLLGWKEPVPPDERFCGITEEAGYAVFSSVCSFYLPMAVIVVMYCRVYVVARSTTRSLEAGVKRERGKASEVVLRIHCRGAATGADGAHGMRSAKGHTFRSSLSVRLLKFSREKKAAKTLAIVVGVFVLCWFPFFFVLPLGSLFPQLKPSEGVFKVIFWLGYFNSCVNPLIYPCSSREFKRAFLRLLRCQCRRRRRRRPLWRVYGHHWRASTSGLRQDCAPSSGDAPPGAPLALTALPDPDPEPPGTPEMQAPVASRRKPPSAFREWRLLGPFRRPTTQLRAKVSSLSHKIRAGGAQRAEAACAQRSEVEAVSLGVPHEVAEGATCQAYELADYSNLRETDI
Procedure, shortened: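 Competition binding on HEK293 membranes with recombinant human α1D receptor, 0.3 nM [3H]-prazosin, 50 mM HEPES/1 mM EDTA pH 7.4, 2 h at room temperature; filtration and scintillation counting. Non-specific binding defined with 10 μM BMY7378. pIC50 from four-parameter logistic fit of specific-binding inhibition.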

T1 sequence (P14416 1-414 isoform P14416-2): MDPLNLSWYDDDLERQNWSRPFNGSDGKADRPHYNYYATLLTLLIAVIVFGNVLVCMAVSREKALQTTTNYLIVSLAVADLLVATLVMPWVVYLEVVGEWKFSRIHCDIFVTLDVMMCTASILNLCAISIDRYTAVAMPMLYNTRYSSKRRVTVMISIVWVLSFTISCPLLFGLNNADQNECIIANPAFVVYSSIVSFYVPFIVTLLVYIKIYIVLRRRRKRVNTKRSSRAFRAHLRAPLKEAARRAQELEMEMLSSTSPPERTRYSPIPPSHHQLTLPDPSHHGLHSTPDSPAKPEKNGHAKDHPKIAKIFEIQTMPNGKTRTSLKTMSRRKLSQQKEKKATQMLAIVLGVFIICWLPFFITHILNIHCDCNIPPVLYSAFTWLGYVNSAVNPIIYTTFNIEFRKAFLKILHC

| Compound | IC50 [1] | IC50 [2] |
| --- | --- | --- |
| O=C1COc2c(CCNCCN(C(=O)CCNCCc3ccccc3)C3CCCCC3)ccc(O)c2N1 [Example 23, N-Cyclohexyl-N-(2-(2-(5-hydroxy-3-oxo-3,4-dihydro-2H-benzo[b][1,4]oxazin-8-yl)ethylamino)ethyl)-3-(phenethylamino)propanamide bis(trifluoroacetate)] | 316 nM | 126 nM |
| O=C1COc2c(CCNCCN(C(=O)CCNCCc3ccccc3)C3CCCCCC3)ccc(O)c2N1 [Example 24, N-Cycloheptyl-N-(2-(2-(5-hydroxy-3-oxo-3,4-dihydro-2H-benzo[b][1,4]oxazin-8-yl)ethylamino)ethyl)-3-(phenethylamino)propanamide bis(trifluoroacetate)] | 158 nM | 50.1 nM |
| CCCC[C@@H](C)N(CCNCCc1ccc(O)c2c1OCC(=O)N2)C(=O)CCNCCc1ccccc1 [Example 25, (R)—N-(Hexan-2-yl)-N-(2-(2-(5-hydroxy-3-oxo-3,4-dihydro-2H-benzo[b][1,4]oxazin-8-yl)ethylamino)ethyl)-3-(phenethylamino)propanamide bis(trifluoroacetate)] | 100 nM | 63.1 nM |
| O=C1COc2c(CCNCCN(C(=O)CCNCCc3ccc(Cl)c(Cl)c3)C3CCCCCC3)ccc(O)c2N1 [Example 26, N-Cycloheptyl-3-(3,4-dichlorophenethylamino)-N-(2-(2-(5-hydroxy-3-oxo-3,4-dihydro-2H-benzo[b][1,4]oxazin-8-yl)ethylamino)ethyl)propanamide bis(trifluoroacetate)] | 31.6 nM | 79.4 nM |
| O=C1COc2c(CCNCCN(C(=O)CCNCCc3cccc(Cl)c3)C3CCCCC3)ccc(O)c2N1 [Example 27, 3-(3-Chlorophenethylamino)-N-cyclohexyl-N-(2-(2-(5-hydroxy-3-oxo-3,4-dihydro-2H-benzo[b][1,4]oxazin-8-yl)ethylamino)ethyl)propanamide bis(trifluoroacetate)] | 251 nM | 126 nM |
| O=C1COc2c(CCNCCN(C(=O)CCNCCc3cccc(Cl)c3Cl)C3CCCCC3)ccc(O)c2N1 [Example 29, N-Cyclohexyl-3-(2,3-dichlorophenethylamino)-N-(2-(2-(5-hydroxy-3-oxo-3,4-dihydro-2H-benzo[b][1,4]oxazin-8-yl)ethylamino)ethyl)propanamide bis(trifluoroacetate)] | 100 nM | 126 nM |
| O=C1COc2c(CCNCCN(C(=O)CCNCCc3ccc(Cl)c(Cl)c3)C3CCCCC3)ccc(O)c2N1 [Example 30, N-Cyclohexyl-3-(3,4-dichlorophenethylamino)-N-(2-(2-(5-hydroxy-3-oxo-3,4-dihydro-2H-benzo[b][1,4]oxazin-8-yl)ethylamino)ethyl)propanamide bis(trifluoroacetate)] | 50.1 nM | 251 nM |
| O=C1COc2c(CCNCCN(C(=O)CCNCCc3ccc(Cl)cc3Cl)C3CCCCC3)ccc(O)c2N1 [Example 31, N-Cyclohexyl-3-(2,4-dichlorophenethylamino)-N-(2-(2-(5-hydroxy-3-oxo-3,4-dihydro-2H-benzo[b][1,4]oxazin-8-yl)ethylamino)ethyl)propanamide bis(trifluoroacetate)] | 100 nM | 158 nM |
| O=C1COc2c(CCNCCN(C(=O)CCNCCc3ccc(Cl)cc3)C3CCCCC3)ccc(O)c2N1 [Example 32, 3-(4-Chlorophenethylamino)-N-cyclohexyl-N-(2-(2-(5-hydroxy-3-oxo-3,4-dihydro-2H-benzo[b][1,4]oxazin-8-yl)ethylamino)ethyl)propanamide bis(trifluoroacetate)] | 200 nM | 251 nM |
| O=C1COc2c(CCNCCN(C(=O)CCNCCc3cc(F)cc(F)c3)C3CCCCC3)ccc(O)c2N1 [Example 35, N-Cyclohexyl-3-(3,5-difluorophenethylamino)-N-(2-(2-(5-hydroxy-3-oxo-3,4-dihydro-2H-benzo[b][1,4]oxazin-8-yl)ethylamino)ethyl)propanamide bis(trifluoroacetate)] | 251 nM | 398 nM |
| O=C1COc2c(CCNCCN(C(=O)CCNCCc3cccc(F)c3F)C3CCCCC3)ccc(O)c2N1 [Example 36, N-Cyclohexyl-3-(2,3-difluorophenethylamino)-N-(2-(2-(5-hydroxy-3-oxo-3,4-dihydro-2H-benzo[b][1,4]oxazin-8-yl)ethylamino)ethyl)propanamide bis(trifluoroacetate)] | 631 nM | 398 nM |
| O=C1COc2c(CCNCCN(C(=O)CCNCCc3ccc(F)c(Cl)c3)C3CCCCC3)ccc(O)c2N1 [Example 37, 3-(3-Chloro-4-fluorophenethylamino)-N-cyclohexyl-N-(2-(2-(5-hydroxy-3-oxo-3,4-dihydro-2H-benzo[b][1,4]oxazin-8-yl)ethylamino)ethyl)propanamide bis(trifluoroacetate)] | 100 nM | 158 nM |
| O=C1COc2c(CCNCCN(C(=O)CCNCCc3cc(F)ccc3F)C3CCCCC3)ccc(O)c2N1 [Example 38, N-Cyclohexyl-3-(2,5-difluorophenethylamino)-N-(2-(2-(5-hydroxy-3-oxo-3,4-dihydro-2H-benzo[b][1,4]oxazin-8-yl)ethylamino)ethyl)propanamide bis(trifluoroacetate)] | 126 nM | 158 nM |
| O=C1COc2c(CCNCCN(C(=O)CCNCCc3cccc(Cl)c3F)C3CCCCC3)ccc(O)c2N1 [Example 39, 3-(3-Chloro-2-fluorophenethylamino)-N-cyclohexyl-N-(2-(2-(5-hydroxy-3-oxo-3,4-dihydro-2H-benzo[b][1,4]oxazin-8-yl)ethylamino)ethyl)propanamide bis(trifluoroacetate)] | 100 nM | 501 nM |
| Cc1cc(CCNCCC(=O)N(CCNCCc2ccc(O)c3c2OCC(=O)N3)C2CCCCC2)ccc1F [Example 40, N-Cyclohexyl-3-(4-fluoro-3-methylphenethylamino)-N-(2-(2-(5-hydroxy-3-oxo-3,4-dihydro-2H-benzo[b][1,4]oxazin-8-yl)ethylamino)ethyl)propanamide bis(trifluoroacetate)] | 398 nM | 31.6 nM |
| O=C1COc2c(CCNCCN(C(=O)CCNCCc3cc(F)cc(Cl)c3)C3CCCCC3)ccc(O)c2N1 [Example 41, 3-(3-Chloro-5-fluorophenethylamino)-N-cyclohexyl-N-(2-(2-(5-hydroxy-3-oxo-3,4-dihydro-2H-benzo[b][1,4]oxazin-8-yl)ethylamino)ethyl)propanamide (trifluoroacetate)] | 200 nM | 251 nM |
| O=C1COc2c(CCNCCN(C(=O)CCNCCc3ccc(F)c(F)c3)C3CCCCC3)ccc(O)c2N1 [Example 42, N-Cyclohexyl-3-(3,4-difluorophenethylamino)-N-(2-(2-(5-hydroxy-3-oxo-3,4-dihydro-2H-benzo[b][1,4]oxazin-8-yl)ethylamino)ethyl)propanamide bis(trifluoroacetate)] | 316 nM | 200 nM |
| O=C1COc2c(CCNCCN(C(=O)CCNCCc3ccc(C(=O)O)cc3)C3CCCCC3)ccc(O)c2N1 [Example 43, 4-(2-(3-(Cyclohexyl(2-(2-(5-hydroxy-3-oxo-3,4-dihydro-2H-benzo[b][1,4]oxazin-8-yl)ethylamino)ethyl)amino)-3-oxopropylamino)ethyl)benzoic acid bis(trifluoroacetate)] | > 10000 nM | > 10000 nM |
| CCCC[C@@H](C)N(CCNCCc1ccc(O)c2c1OCC(=O)N2)C(=O)CCNCCc1cccc(Cl)c1 [Example 44, (R)-3-(3-Chlorophenethylamino)-N-(hexan-2-yl)-N-(2-(2-(5-hydroxy-3-oxo-3,4-dihydro-2H-benzo[b][1,4]oxazin-8-yl)ethylamino)ethyl)propanamide bis(trifluoroacetate)] | 79.4 nM | 50.1 nM |
| CCCC[C@@H](C)N(CCNCCc1ccc(O)c2c1OCC(=O)N2)C(=O)CCNCCc1ccc(Cl)cc1 [Example 45, (R)-3-(4-Chlorophenethylamino)-N-(hexan-2-yl)-N-(2-(2-(5-hydroxy-3-oxo-3,4-dihydro-2H-benzo[b][1,4]oxazin-8-yl)ethylamino)ethyl)propanamide bis(trifluoroacetate)] | 79.4 nM | 251 nM |
| CCCC[C@@H](C)N(CCNCCc1ccc(O)c2c1OCC(=O)N2)C(=O)CCNCCc1ccccc1Cl [Example 46, (R)-3-(2-Chlorophenethylamino)-N-(hexan-2-yl)-N-(2-(2-(5-hydroxy-3-oxo-3,4-dihydro-2H-benzo[b][1,4]oxazin-8-yl)ethylamino)ethyl)propanamide bis(trifluoroacetate)] | 15.8 nM | 79.4 nM |
